From patent US20260234188A1, “CHEMOKINE-BINDING PEPTIDES” (Oxford University Innovation Limited, priority 2022, published 2026) come the findings set out here.

In experiment [1] the test system is panel of 24 biotinylated chemokines. Nature of the experiment: Phage-display screen of HD2 NNK saturation mutagenesis library. The class given is binding, human. The following applies: HD2 saturation mutants; chemokines on streptavidin beads; UniProt entry names. An excerpt:
FIG. 7. Exemplar results from phage display screens using saturation mutagenesis. A phage-display library was constructed using the HD2 sequence, replacing each residue encoding codon with the degenerate sequence NNK. The 16 degenerate sequences (which also encoded the parental HD2 sequence) were pooled and cloned into display phage. […] Exemplar peptides were selected such that log 2 E for at least one chemokine was greater than 5, and log 2 E for binding to control (CO5, was less than zero). […] The fold enrichment of parental HD2 is also indicated.
A phage-display library was constructed using the HD2 sequence, replacing each residue encoding codon with the degenerate sequence NNK. The 16 degenerate sequences (which also encoded the parental HD2 sequence) were pooled and cloned into display phage. […] Exemplar peptides were selected such that log 2 E for at least one chemokine was greater than 5, and log 2 E for binding to control (CO5, was less than zero). […] The fold enrichment of parental HD2 is also indicated.
A molecular level understanding of binding mechanism is needed for development of peptides as therapeutics and is usually obtained from structural analyses. As HD2 binds many chemokines this becomes a challenging task, and we explored if we could elucidate this using phage display mutagenesis. The role of each residue in HD2 for binding was examined in phage-display. A library of HD2 mutations that had NNK substituted at each residue and performed phage-display selection against a panel of 24 biotinylated chemokines, in parallel, as described in Example 7. This strategy allowed us to evaluate the impact not only of Ala substitutions, but also conservative, hydrophilic and hydrophobic substitutions, and compare with binding of parental HD2 which is also included in the library. Ala substitution removes side-chains beyond the β-carbon and can be used to infer the role of side-chain functional groups without affecting conformational flexibility of the backbone. […] These residues are within the two motifs identified previously. Other notable residues identified were Y8 and P10. We next judged the impact of Ala mutation by calculating the change in log 2 E (Δlog 2 E) between the mutant and parental HD2. A positive value of Δlog 2 E indicates increased binding, and a negative value decreased binding compared to parental HD2. […] As may be seen, the log 2 E for the parental HD2 was ~0 in these analyses indicating lack of enrichment.
Oligonucleotide pools were amplified using primers: oligo_fwd: 5′-[…] and oligo_rev2: 5′-tcgtcaccctcggcgcctcctcoggatcctccacc. Oligonucleotide PCR products were cloned into plasmid prSTOP4Nsi using NEB Builder HiFi Assembly following instructions of the manufacturer. The vector pool was used to transform electrocompetent Invitrogen ElectroMAX™ DH5α-E™ cells. Plasmid DNA was harvested by MaxiPrep (GeneJet Plasmid Maxiprep Kit) and was transformed into SS320 phage display electrocompetent cells (Lucigen), following the manufacturer's protocol, resuspended in 950 μL recovery media for each electroporation, transferred to 50 mL Falcon tubes, 100 μL 1011 CFU/mL M13KO7 helper phage (NEB) added and shaken at 37° C., 220 RPM for 1 h. 1 mL recovery culture was added to 2YT medium containing +50 ug/mL carbenicillin and 25 ug/mL kanamycin, and grown overnight at 37C, 220 rpm. Phage was precipitated from the culture supernatant by adding 22.5 mL of supernatant to 4.5 mL 20% PEG 8000/2.5 M NaCl, incubating on ice for 30 min, and centrifuging at 10,000 RPM, 4° C. for 10 min, and resuspending phage in 1 ml of PBT, followed by centrifugation at 13000 RPM, 4° C., for 10 min. […]

Another experiment addresses T1, CCL3 (Homo sapiens, UniProt P10147).
T1 construct: purchased Peprotech
T1 sequence (P10147 24-92): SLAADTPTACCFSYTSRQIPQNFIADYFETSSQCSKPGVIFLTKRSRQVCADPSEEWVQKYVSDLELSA
Nature of the experiment: CCL3-induced THP-1 cell migration, transwell assay. The following applies: HD2 mutant peptides 10 μM, chemokine at EC80. The class given is cell-based. As for the experimental part:
FIG. 2. […] BK1.2 is described in (Darlot, 2020). […] Chemokines used are indicated by the name, followed in parenthesis by the supplier code (P in supplier code indicates Peprotech). […] All experiments were performed at EC80 doses of indicated chemokine. Data are shown as box-whisker plots of three technical and three biological replicates. Statistically significant differences (compared to control, indicated by #), using Dunnett's test with correction for multiple comparisons, are indicated by asterisks: ****=P≤0.0001, ***=P≤0.001, **=P≤0.01, *=P≤0.05.
Briefly, cell migration assays use THP1 cells (human monocyte) and primary human buffy coat white cells (consisting of neutrophil granulocytes, monocytes, and lymphocytes), and activated T-cells. […] Assays are performed in 96-well Boyden chambers, and migrated cells counted and characterized using and ATTUNE Flow Cytometer as described. […]
The J:CXCR1 cell line was generated by transfecting Jurkat cells by electroporation with PvuI-linearized plasmid D1398 and selecting with blasticidin (Sigma-Aldrich, Cat #203350, 5 g/mL). […] Cell counts were determined by Attune NxT Flow Cytometer Plate Reader (ThermoFisher), based on cell size parameters FSC-H/SSC-H. Experiments were performed in 3 technical and 3 biological replicates. […] Statistical significances between control experimental groups was evaluated using Dunnett's test. […]

“Also recorded” adds a separate entry of the source.

For the sequence EEDDYTAYAPLWCYFT [HD2_W12], in experiment [1], the “Chemokines Bound log2E 1-5” value is given as “CCL1, CCL15, CCL17, CCL18,; also recorded: CCL19, CCL20, CCL22, CCL25,; also recorded: CCL28, CCL4, X3CL1, SDF1,; also recorded: CXL14” and the “Chemokines Bound log2E > 5” value is “CCL3”. In addition, at CCL3, the “chemotaxis compared with the parental HD2 peptide” value is “significant reduction in chemotaxis”.
